Assay results as given in ChEMBL document CHEMBL3046904, “Synthesis, characterization, bioactivity, and POM analyses of isothiochromeno[3,4-e][1,2]oxazines” (2013).

Legend:
Assay type in all cases: functional
SF-268 [1] = test: Cytotoxicity against Homo sapiens (human) SF268 assessed as cell growth at 10^-4 M after 48 hr by Alamar Blue assay; conditions: SF-268, 48 h, read-out: Activity
MCF7 [2] = test: Cytotoxicity against Homo sapiens (human) MCF7 assessed as cell growth at 10^-4 M after 48 hr by Alamar Blue assay; conditions: MCF7, 48 h, read-out: Activity
NCI-H460 [3] = test: Cytotoxicity against Homo sapiens (human) NCI-H460 assessed as cell growth at 10^-4 M after 48 hr by Alamar Blue assay; conditions: NCI-H460, 48 h, read-out: Activity
SW-620 = test: Cytotoxicity against Homo sapiens (human) SW620 after 48 hr by Alamar Blue assay; conditions: SW-620, 48 h
HT-29 = test: Cytotoxicity against Homo sapiens (human) HT-29 after 48 hr by Alamar Blue assay; conditions: HT-29, 48 h
KM12 = test: Cytotoxicity against Homo sapiens (human) KM12 after 48 hr by Alamar Blue assay; conditions: KM12, 48 h
HCT-15 = test: Cytotoxicity against Homo sapiens (human) HCT15 after 48 hr by Alamar Blue assay; conditions: HCT-15, 48 h
HCC 2998 = test: Cytotoxicity against Homo sapiens (human) HCC2998 after 48 hr by Alamar Blue assay; conditions: HCC 2998, 48 h
HCT-116 = test: Cytotoxicity against Homo sapiens (human) HCT116 after 48 hr by Alamar Blue assay; conditions: HCT-116, 48 h
COLO 205 = test: Cytotoxicity against Homo sapiens (human) COLO205 after 48 hr by Alamar Blue assay; conditions: COLO 205, 48 h
BT-549 = test: Cytotoxicity against Homo sapiens (human) BT549 after 48 hr by Alamar Blue assay; conditions: BT-549, 48 h
T47D = test: Cytotoxicity against Homo sapiens (human) T47D after 48 hr by Alamar Blue assay
MDA-MB-435 = test: Cytotoxicity against Homo sapiens (human) MDA-MB-435 after 48 hr by Alamar Blue assay; conditions: MDA-MB-435, 48 h
MDA-MB-231 = test: Cytotoxicity against Homo sapiens (human) MDA-MB-231 after 48 hr by Alamar Blue assay; conditions: MDA-MB-231, 48 h
Hs-578T = test: Cytotoxicity against Homo sapiens (human) Hs 578T after 48 hr by Alamar Blue assay
NCI/ADR-RES = test: Cytotoxicity against Homo sapiens (human) NCI/ADR-RES after 48 hr by Alamar Blue assay
MCF7 [4] = test: Cytotoxicity against Homo sapiens (human) MCF7 after 48 hr by Alamar Blue assay; conditions: MCF7, 48 h
PC-3 = test: Cytotoxicity against Homo sapiens (human) PC3 after 48 hr by Alamar Blue assay; conditions: PC-3, 48 h
DU-145 = test: Cytotoxicity against Homo sapiens (human) DU145 after 48 hr by Alamar Blue assay; conditions: DU-145, 48 h
UO-31 = test: Cytotoxicity against Homo sapiens (human) UO31 after 48 hr by Alamar Blue assay; conditions: UO-31, 48 h
SN12C = test: Cytotoxicity against Homo sapiens (human) SN12C after 48 hr by Alamar Blue assay
TK-10 = test: Cytotoxicity against Homo sapiens (human) TK10 after 48 hr by Alamar Blue assay; conditions: TK-10, 48 h
RXF 393 = test: Cytotoxicity against Homo sapiens (human) RXF393 after 48 hr by Alamar Blue assay; conditions: RXF 393, 48 h
CAKI-1 = test: Cytotoxicity against Homo sapiens (human) Caki1 after 48 hr by Alamar Blue assay; conditions: CAKI-1, 48 h
ACHN = test: Cytotoxicity against Homo sapiens (human) ACHN after 48 hr by Alamar Blue assay
A498 = test: Cytotoxicity against Homo sapiens (human) A498 after 48 hr by Alamar Blue assay; conditions: A498, 48 h
A549 = test: Cytotoxicity against Homo sapiens (human) A549 after 48 hr by Alamar Blue assay; conditions: A549, 48 h
RPMI-8226 = test: Cytotoxicity against Homo sapiens (human) RPMI8226 after 48 hr by Alamar Blue assay; conditions: RPMI-8226, 48 h
SR = test: Cytotoxicity against Homo sapiens (human) SR after 48 hr by Alamar Blue assay
MOLT-4 = test: Cytotoxicity against Homo sapiens (human) MOLT4 after 48 hr by Alamar Blue assay; conditions: MOLT-4, 48 h
K562 = test: Cytotoxicity against Homo sapiens (human) K562 after 48 hr by Alamar Blue assay; conditions: K562, 48 h
[5] = Cytotoxicity against Homo sapiens (human) HL-60(TB) after 48 hr by Alamar Blue assay; conditions: HL-60, 48 h
HOP-92 = test: Cytotoxicity against Homo sapiens (human) HOP92 after 48 hr by Alamar Blue assay; conditions: HOP-92, 48 h
NCI-H226 = test: Cytotoxicity against Homo sapiens (human) NCI-H226 after 48 hr by Alamar Blue assay; conditions: NCI-H226, 48 h
EKVX = test: Cytotoxicity against Homo sapiens (human) EKVX after 48 hr by Alamar Blue assay
HOP-62 = test: Cytotoxicity against Homo sapiens (human) HOP62 after 48 hr by Alamar Blue assay; conditions: HOP-62, 48 h
786-0 = test: Cytotoxicity against Homo sapiens (human) 786-0 after 48 hr by Alamar Blue assay; conditions: 786-0, 48 h
OVCAR-8 = test: Cytotoxicity against Homo sapiens (human) OVCAR8 after 48 hr by Alamar Blue assay; conditions: OVCAR-8, 48 h
OVCAR-4 = test: Cytotoxicity against Homo sapiens (human) OVCAR4 after 48 hr by Alamar Blue assay; conditions: OVCAR-4, 48 h
OVCAR-5 = test: Cytotoxicity against Homo sapiens (human) OVCAR5 after 48 hr by Alamar Blue assay; conditions: OVCAR-5, 48 h
OVCAR-3 = test: Cytotoxicity against Homo sapiens (human) OVCAR3 after 48 hr by Alamar Blue assay; conditions: OVCAR-3, 48 h
IGROV-1 = test: Cytotoxicity against Homo sapiens (human) IGROV1 after 48 hr by Alamar Blue assay; conditions: IGROV-1, 48 h
UACC-62 = test: Cytotoxicity against Homo sapiens (human) UACC62 after 48 hr by Alamar Blue assay; conditions: UACC-62, 48 h
UACC-257 = test: Cytotoxicity against Homo sapiens (human) UACC257 after 48 hr by Alamar Blue assay; conditions: UACC-257, 48 h
SK-MEL-5 = test: Cytotoxicity against Homo sapiens (human) SK-MEL-5 after 48 hr by Alamar Blue assay; conditions: SK-MEL-5, 48 h
SK-MEL-28 = test: Cytotoxicity against Homo sapiens (human) SK-MEL-28 after 48 hr by Alamar Blue assay; conditions: SK-MEL-28, 48 h
SK-MEL-2 = test: Cytotoxicity against Homo sapiens (human) SK-MEL-2 after 48 hr by Alamar Blue assay; conditions: SK-MEL-2, 48 h
Malme-3M = test: Cytotoxicity against Homo sapiens (human) MALME-3M after 48 hr by Alamar Blue assay
M14 = test: Cytotoxicity against Homo sapiens (human) M14 after 48 hr by Alamar Blue assay; conditions: M14, 48 h
LOX IMVI = test: Cytotoxicity against Homo sapiens (human) LOXIMVI after 48 hr by Alamar Blue assay
U-251 = test: Cytotoxicity against Homo sapiens (human) U251 after 48 hr by Alamar Blue assay; conditions: U-251, 48 h
SNB-19 = test: Cytotoxicity against Homo sapiens (human) SNB19 after 48 hr by Alamar Blue assay; conditions: SNB-19, 48 h
SF-295 = test: Cytotoxicity against Homo sapiens (human) SF295 after 48 hr by Alamar Blue assay; conditions: SF-295, 48 h
SF-539 = test: Cytotoxicity against Homo sapiens (human) SF539 after 48 hr by Alamar Blue assay; conditions: SF-539, 48 h
SF-268 [6] = test: Cytotoxicity against Homo sapiens (human) SF268 after 48 hr by Alamar Blue assay; conditions: SF-268, 48 h
NCI-H522 = test: Cytotoxicity against Homo sapiens (human) NCI-H522 after 48 hr by Alamar Blue assay; conditions: NCI-H522, 48 h
NCI-H460 [7] = test: Cytotoxicity against Homo sapiens (human) NCI-H460 after 48 hr by Alamar Blue assay; conditions: NCI-H460, 48 h
NCI-H322M = test: Cytotoxicity against Homo sapiens (human) NCI-H322M after 48 hr by Alamar Blue assay
NCI-H23 = test: Cytotoxicity against Homo sapiens (human) NCI-H23 after 48 hr by Alamar Blue assay; conditions: NCI-H23, 48 h

## COc1ccc(C2=C3SC=c4ccccc4=C3ON=C2c2ccc(Cl)cc2)cc1
SF-268 [1]
  growth at 100 µM: 102%
MCF7 [2]
  growth at 100 µM: 51%
NCI-H460 [3]
  growth at 100 µM: 85%

## Cc1ccc(C2=C3SC=c4ccccc4=C3ON=C2c2ccc(Cl)cc2)cc1
SW-620
  GI50: 55.6 µM
HT-29
  GI50: > 100 µM
KM12
  GI50: > 100 µM
HCT-15
  GI50: 81.2 µM
HCC 2998
  GI50: > 100 µM
HCT-116
  GI50: 62.7 µM
COLO 205
  GI50: 46.2 µM
BT-549
  GI50: 41.2 µM
T47D
  GI50: 31.4 µM
MDA-MB-435
  GI50: 44.2 µM
MDA-MB-231
  GI50: > 100 µM
Hs-578T
  GI50: > 100 µM
NCI/ADR-RES
  GI50: > 100 µM
MCF7 [4]
  GI50: 31.2 µM
PC-3
  GI50: 21.6 µM
DU-145
  GI50: > 100 µM
UO-31
  GI50: > 100 µM
SN12C
  GI50: 11.3 µM
TK-10
  GI50: > 100 µM
RXF 393
  GI50: > 100 µM
CAKI-1
  GI50: > 100 µM
ACHN
  GI50: > 100 µM
A498
  GI50: > 100 µM
A549
  GI50: > 100 µM
RPMI-8226
  GI50: 11.8 µM
SR
  GI50: 36.5 µM
MOLT-4
  GI50: 12.5 µM
K562
  GI50: 20.6 µM
[5]
  GI50: 0.0182 nM
SF-268 [1]
  growth at 100 µM: 37%
MCF7 [2]
  growth at 100 µM: 2%
NCI-H460 [3]
  growth at 100 µM: 91%
HOP-92
  GI50: 26.5 µM
NCI-H226
  GI50: > 100 µM
EKVX
  GI50: > 100 µM
HOP-62
  GI50: > 100 µM
786-0
  GI50: 21.2 µM
OVCAR-8
  GI50: 11.6 µM
OVCAR-4
  GI50: > 100 µM
OVCAR-5
  GI50: > 100 µM
OVCAR-3
  GI50: > 100 µM
IGROV-1
  GI50: > 10 µM
UACC-62
  GI50: > 100 µM
UACC-257
  GI50: 25.6 µM
SK-MEL-5
  GI50: 53.1 µM
SK-MEL-28
  GI50: > 100 µM
SK-MEL-2
  GI50: > 100 µM
Malme-3M
  GI50: 22.1 µM
M14
  GI50: > 100 µM
LOX IMVI
  GI50: 50 µM
U-251
  GI50: 20 µM
SNB-19
  GI50: > 100 µM
SF-295
  GI50: > 100 µM
SF-539
  GI50: > 100 µM
SF-268 [6]
  GI50: 12.1 µM
NCI-H522
  GI50: 15.1 µM
NCI-H460 [7]
  GI50: > 100 µM
NCI-H322M
  GI50: > 100 µM
NCI-H23
  GI50: 16.6 µM
